Patent US8722720B2, “Imidazole derivatives as IDO inhibitors” (NewLink Genetics Corporation, priority 2010, dated 2014)

These molecules were tested against T1, purified human IDO protein (Homo sapiens, UniProt P14902) (assay: Enzymatic IDO assay (kynurenine production, absorbance at 480 nm)). Settings: hIDO IC50, recombinant human IDO; values reported in ranges.
T1 construct: 2 extra amino acids (linker from the BglII cloning site of pQE70); made in house; host or cells: E. coli M15(pREP4) with plasmid pQE70-hIDO
T1 sequence (P14902 whole entry P110S/E119G): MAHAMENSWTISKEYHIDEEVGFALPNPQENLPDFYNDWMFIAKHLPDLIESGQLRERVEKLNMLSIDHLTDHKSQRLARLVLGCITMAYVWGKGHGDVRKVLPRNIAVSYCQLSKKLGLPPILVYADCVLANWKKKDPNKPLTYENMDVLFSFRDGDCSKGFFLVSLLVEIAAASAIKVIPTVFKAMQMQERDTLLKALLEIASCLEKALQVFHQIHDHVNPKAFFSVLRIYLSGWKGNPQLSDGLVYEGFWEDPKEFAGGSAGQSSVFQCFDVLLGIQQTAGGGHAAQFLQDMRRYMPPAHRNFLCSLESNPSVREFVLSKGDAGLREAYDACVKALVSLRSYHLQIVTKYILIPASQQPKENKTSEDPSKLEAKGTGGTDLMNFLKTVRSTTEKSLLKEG
Assay type: biochemical
Protocol: The inhibitors were initially diluted in DMSO at 100 mM and were diluted in potassium phosphate 50 mM, added to the reaction mixture at final concentrations raging from 1 mM to 5 nM and preincubated with the enzyme for 5 min at 25° C. The reaction was started by addition of L-tryptophan to 200 μM and incubated 15 min at 37° C. The reaction was stopped by addition of 0.5 vol of 30% trichloroacetic acid and incubated 30 min at 60° C. to hydrolyze N-formylkynurenine to kynurenine. The reaction was centrifuged at 3400 g for 5 min to remove precipitated protein and the supernatant was reacted with 2% (w/v) of p-dimethylaminobenzaldehyde in acetic acid. The reaction was incubated 10 min at 25° C. and read at 480 nm in a spectrophotometer. […] Nonlinear regressions and determination of the IC50 values were performed using the GraphPad Prism 4 software.
Molecule `CN1CCN(C(=O)Oc2ccc(Cl)cc2-c2c[nH]cn2)CC1` [compound 1112, 4-chloro-2-(1H-imidazol-4-yl)phenyl 4-methylpiperazine-1-carboxylate] has an IC50 of 10 to 100 µM. For `CN(C)C(=O)Oc1ccc(Br)cc1-c1c[nH]cn1` [compound 1035, 4-bromo-2-(1H-imidazol-4-yl)phenyl dimethylcarbamate], the IC50 was > 100 µM.

Same assay, conditions: recombinant human IDO; values reported in ranges; read-out: hIDO IC50
`COc1cc(F)c(Cl)cc1-c1cnc[nH]1` [compound 1051, 5-(5-chloro-4-fluoro-2-methoxyphenyl)-1H-imidazole] was tested, and the IC50 was > 100 µM. In the case of `CC(Oc1ccccc1-c1c[nH]cn1)c1ccc(Cl)cc1` (centres unmarked) [compound 1024, 4-(2-(1-(4-chlorophenyl)ethoxy)phenyl)-1H-imidazole], the IC50 is reported as 10 to 100 µM. With `c1ccc2[nH]c(-c3c[nH]cn3)cc2c1` [compound 975, 2-(1H-imidazol-4-yl)-1H-indole] the IC50 was 10 to 100 µM. With `O=C(Cc1ccc([N+](=O)[O-])cc1)Nc1ccc(CCOc2ccccc2-c2c[nH]cn2)cc1` [compound 1247, N-(4-(2-(2-(1H-imidazol-4-yl)phenoxy)ethyl)phenyl)-2-(4-nitrophenyl)acetamide] the IC50 was < 1 µM. For `CC(=O)Nc1ccc(CCOc2cccc(O)c2-c2cnc[nH]2)cc1` [compound 1232, N-(4-(2-(3-hydroxy-2-(1H-imidazol-5-yl)phenoxy)ethyl)phenyl)acetamide], the IC50 was 10 to 100 µM. `Oc1cccc(-c2c[nH]cn2)n1` [compound 1011, 6-(1H-imidazol-4-yl)pyridin-2-ol] was tested, and the IC50 was > 100 µM. With `C=C(COc1ccccc1-c1c[nH]cn1)c1coc2ccccc12` [compound 1030, 4-(2-(2-(benzofuran-3-yl)allyloxy)phenyl)-1H-imidazole] the IC50 was 1 to 10 µM. Molecule `O=C(O)c1ccc(C(=O)Nc2ccc(CCOc3ccccc3-c3c[nH]cn3)cc2)cc1` [compound 1270, 4-((4-(2-(2-(1H-imidazol-4-yl)phenoxy)ethyl)phenyl)carbamoyl)benzoic acid] has an IC50 of 1 to 10 µM. In the case of `O=C(Cc1ccccc1)Nc1ccc(CCOc2ccccc2-c2cnc[nH]2)cc1` [compound 1102, N-(4-(2-(2-(1H-imidazol-4-yl)phenoxy)ethyl)phenyl)-2-phenylacetamide], the IC50 is reported as < 1 µM. With `BrCCOc1ccccc1-c1c[nH]cn1` [compound 1243, 4-(2-(2-bromoethoxy)phenyl)-1H-imidazole] the IC50 was 10 to 100 µM. For `CC(C)(C)OC(=O)N1CCC(CCOc2cccc(O)c2-c2cnc[nH]2)CC1` [compound 1240, tert-butyl 4-(2-(3-hydroxy-2-(1H-imidazol-5-yl)phenoxy)ethyl)piperidine-1-carboxylate], the IC50 was 10 to 100 µM. In the case of `O=C(NCc1cccc(Cl)c1)C1CCC(=CCOc2ccccc2-c2c[nH]cn2)CC1` (centres unmarked) [compound 947, 4-(2-(2-(1H-imidazol-4-yl)phenoxy)ethylidene)-N-(3-chlorobenzyl)cyclohexanecarbox-amide], the IC50 is reported as 10 to 100 µM. Molecule `CN(C)c1ccc(CCOc2ccccc2-c2c[nH]cn2)cc1` [compound 1181, 4-(2-(2-(1H-imidazol-4-yl)phenoxy)ethyl)-N,N-dimethylaniline] has an IC50 of 10 to 100 µM. `O=C(Cc1cnccn1)Nc1ccc(CCOc2ccccc2-c2c[nH]cn2)cc1` [compound 1156, N-(4-(2-(2-(1H-imidazol-4-yl)phenoxy)ethyl)phenyl)-2-(pyrazin-2-yl)acetamide] was tested, and the IC50 was 1 to 10 µM. In the case of `CCOC(=O)n1cnc(-c2ccccc2)c1` [compound 1047, ethyl 4-phenyl-1H-imidazole-1-carboxylate], the IC50 is reported as > 100 µM. `O=C(O)c1cccc(C(=O)Nc2ccc(CCOc3ccccc3-c3c[nH]cn3)cc2)c1` [compound 1276, 3-((4-(2-(2-(1H-imidazol-4-yl)phenoxy)ethyl)phenyl)carbamoyl)benzoic acid] was tested, and the IC50 was 1 to 10 µM. `c1nc(-c2ccc3cc[nH]c3c2)c[nH]1` [compound 961, 6-(1H-imidazol-4-yl)-1H-indole] showed an IC50 of 10 to 100 µM. Molecule `CC(=O)N(Cc1ccccc1)Cc1cccc(COc2ccccc2-c2c[nH]cn2)c1` [compound 959, N-(3-((2-(1H-imidazol-4-yl)phenoxy)methyl)benzyl)-N-benzylacetamide] has an IC50 of 10 to 100 µM.
